This test relates to T1, AadA36.
T1 construct: N-terminal His-tag removed with thrombin
The test can be described thus: coupled NADPH assay at […] nm (UDP-glucose pyrophosphorylase, phosphoglucomutase, glucose-6-phosphate dehydrogenase), Michaelis-Menten fit. It counts as biochemical, Providencia stuartii. The conditions noted are these: 50 mM HEPES pH 7.5, 10 mM MgCl2, 1 mM ATP, 0.2 mM DTT, substrate 5-150 μM.

Broadly, the Km is the concentration of substrate that gives half-maximal velocity.

With `CN[C@@H]1[C@H](O)[C@H](NC)[C@H]2O[C@@]3(O)C(=O)C[C@@H](C)O[C@H]3O[C@@H]2[C@H]1O` [spectinomycin], the Km stood at 49.1 ± 12.8 µM.
For `[H]/N=C(/N)N[C@H]1[C@H](O)[C@@H](O)[C@H](O[C@@H]2O[C@@H](C)[C@](O)(C=O)[C@H]2O[C@@H]2O[C@@H](CO)[C@H](O)[C@@H](O)[C@@H]2NC)[C@@H](N/C(N)=N\[H])[C@@H]1O` [streptomycin], the Km stood at 59.5 ± 14.1 µM.
